From US9260417B2, “Therapeutic methods and compositions involving allosteric kinase inhibition” (AMITECH THERAPEUTIC SOLUTIONS, INC., priority 2010, dated 2016)

Tests used:
[1] = target: B-RAF/C-RAF heterodimerization (Homo sapiens (Human), UniProt P15056); assay: B-RAF/C-RAF heterodimerization in HUVECs (immunoprecipitation/Western); type: cell-based; settings: ECs stimulated with bFGF or VEGF
HCT116 = assay: Tumor cell viability; type: cell-based, human; settings: Homo sapiens, HCT-116; Colon HCT116, K-Ras
Description: (§1) For XTT assays, cells were grown in 96-well plates overnight and all assays were conducted in growth medium will full serum and additives. Compounds were serially diluted in DMSO and then further diluted into the medium to give the appropriate concentration while minimizing precipitation associated with serial diluting in medium alone Inhibitors were added for 72 h and cell viability was quantified at 450 nm after the addition of 1 mg/ml XTT solution (Sigma-Aldrich) in phenol-red free DMEM medium containing […] (Sigma-Aldrich). Dose-response curves were plotted using GraphPad Prism software and EC50s were calculated using this program.

MCF7 = assay: Tumor cell viability; type: cell-based; settings: Homo sapiens; Breast MCF7, PI3K
Description: as §1

HT29 = assay: Tumor cell viability; type: cell-based; settings: Homo sapiens, HT-29; Colon HT29, B-RAF V600E
Description: as §1

R40P = assay: Tumor cell viability; type: cell-based; settings: Pancreatic (mouse spontaneous model) R40P, K-Ras
Description: as §1

[2] = test system: Tg(fli1:EGFP) zebrafish embryos; assay: Zebrafish angiogenesis model; settings: for intersegmental vessel formation: treated 16-48 hpf, 5 μM imatinib, 1 μM GW 5074, alone or combined
Description: Embryos were treated with 1 μM 6 or SU5416, or 10 μM 3 from 20 hours post fertilization (hpf) until 48 hpf. Representative 3D reconstructions of the blood vasculature are shown for both the head and tail regions of the embryo. Designations for the major vessels in the head and tail of the zebrafish embryo at 48 hpf are available in FIG. 8A. (FIG. 3B) Disruption of lumen formation in the zebrafish during late vessel maturation. Zebrafish treated with either 1 μM 6 or 10 μM 3 from 20-48 hpf were imaged at 35 and 48 hpf. […] Shown is 3D overlap reconstruction of the GFP expressing intersegmental vessels with TUNEL-positive nuclei at 48 hpf (shown in red). Representative phase contrast views as well as quantification of intersegmental vessel volumes from FIG. 3A and FIG. 3B can be found in FIG. 8B-D, respectively. (FIG. 3C) Time course of drug addition to zebrafish. […] At 30 hpf the zebrafish embryos established early vessels with evident lumens. […] All scale bars=100 μm.
Z-stacks from laser scanning confocal microscopy are shown depicting formation of the intersegmental vessels at 48 hpf. n=6 embryos/treatment. (FIG. 4B) HUVECs were co-cultured with hTERT-human hepatic stellate cells in a 3-D collagen matrix in the presence of complete EBM-2 medium to monitor pericyte-associated endothelial tube formation. […] The endothelial tubes were stained at 24 h by adding 2 μl FITC labeled Ulex europaeus lectin (Vector labs) per well. Images were acquired 48 h post seeding of the cells. One representative panel from 3 independent experiments is shown. Green—FITC lectin labeled endothelial cells, Red—DiIC(3) labeled stellate cells. […] Scale bar=200 μm. (FIG. 4C) Tube lengths were measured using Metamorph software for each tube for all 10 fields that were acquired. The % pericyte-covered tube length was calculated from the ratio of tube length sums for the tubes with and without pericyte contact. Error bars are reported as ±SEM of two wells per group. *indicates p<0.05 compared to DMSO group.
Zebrafish studies. Transgenic Tg(fli1:EGFP) zebrafish embryos were purchased from www.zfin.org and reported elsewhere (Lawson, et al. (2002) Dev Biol 248:307-318) and maintained according to (“Zebrafish—A Practical Approach”, Oxford University Press, 2002). Compounds in DMSO stock solutions were diluted directly into the water and vessels were imaged for GFP expression using a Nikon c1-si confocal microscope. Apoptosis was measured by TUNEL staining using the Apoptag in situ Red Fluorescence Kit (Chemicon) with a protocol described previously (Stanton, et al. (2006) The Journal of biological chemistry 281:28782-28793).

[3] = test system: HUVECs co-cultured with hTERT-human hepatic stellate cells; assay: Stellate cell/endothelial cell co-culture tube formation assay; type: cell-based; settings: […] 6, […] 3, 1.0 μM imatinib, 0.5 μM GW 5074
Description: One representative panel from 3 independent experiments is shown. […] Scale bar=200 μm.
The stellate cells were washed in PBS and mixed with early passage HUVECs (p<5) at a ratio of 1:4 and mixed into a 3.75 mg/ml Type 1 Rat tail collagen matrix (BD Biosciences) in M-199 media. 30 μl of this mixture was seeded onto each well of a half-area 96 well plate (Corning). The collagen was allowed to polymerize for 30 min at 37° C. and […] of complete EBM-2 media was added to each well. Various inhibitors were serially diluted in DMSO and subsequently added to duplicate wells 6 h post cell seeding. […] The endothelial tubes and the stellate cells were imaged at 48 h with a 10× objective on a confocal microscope. Images were collected across five fields per well.
Stellate cell/endothelial cell tube formation assay and mouse matrigel model. This assay was performed as described in the SI Methods. The stellate cells were a gift from Dr. David Brenner and previously described (Schnabl, et al. (2002) Laboratory investigation; a journal of technical methods and pathology 82:323-333). […] The mouse matrigel model was performed as previously described (Eliceiri, et al. (1999) Molecular cell 4:915-924 5) and further details of immunohistochemistry and animal dosing can be found herein.
To validate the findings of Example 10, a co-culture angiogenesis assay was utilized to evaluate similar combinations of PDGFR and RAF inhibitors. In the assay, HUVECs are mixed with hepatic stellate cells (a pericyte found in the perisinusoidal space of the liver) in a 3D-collagen gel. The co-culture produced endothelial tubes with pericyte contacts (from the stellate cells) that can be imaged and quantified as shown in FIGS. 4B and C.

A549 cells = assay: Cell proliferation assay (BrdU ELISA) in A549 cells; type: cell-based; settings: A549, low serum DMEM (0.5% FBS), 72 h
Description: A549 cells, which endogenously express oncogenic K-RAS, were plated at 2500 cells/well of a 96-well plate in low serum DMEM (0.5% fetal bovine serum) overnight. The next morning, compounds were serially diluted in DMSO and resuspended in fresh DMEM+0.5% medium, which was added to the cells for 72 h. At this time point the cells were fixed and proliferation was quantified using an ELISA for bromodeoxyuriding incorporation (BrdU ELISA, Millipore, Inc.). BrdU incorporation occurs during S phase and is the classical method for determining cell proliferation rates. In FIG. 14B-C, BrdU incorporation is expressed as a percentage of the BrdU incorporation occurring in cells treated with 0.1% DMSO as control. A dotted line represents the growth rate of cells treated with DMSO alone. […] (FIG. 13C)

XPA-1 cells = assay: Cell cycle analysis of XPA-1 cells (flow cytometry); type: cell-based; settings: 5 μM, 20 h
Description: For cell cycle analysis, cells were grown in complete DMEM+10% FBS in the presence of each inhibitor and harvested after 20 h of inhibitor treatment. Cell cycle analysis was performed by flow cytometry following propidium iodide staining. The cells were harvested, fixed with ice cold methanol, treated for 45 min with 10 μg/ml of RNAse and resuspended in PBS containing 10 μg/ml of PI, and analysed by flow cytometry. […] For corresponding confocal microscopy images, cells attached to coverslips were fixed with cold methanol and permeabilized in PBS containing 0.1% triton X-100 for two minutes and blocked for 60 minutes, at room temperature with 2% BSA in PBS. Cells were stained with the DNA binding dye TOPRO-3 (Invitrogen) to label the DNA and laminB (Santa Cruz) to label the nuclear envelope. The anti-Lamin B antibody was used at a 1:100 dilution for two hours at room temperature. After washing several times with PBS, cells were stained for two hours at room temperature, with secondary antibody diluted 1:300 and co-incubated with TOPRO-3 (1:500) (Invitrogen). Samples were mounted in Vectashield hard-set mounting media (Vector Laboratories) and imaged on a Nikon Eclipse Cl confocal microscope with a 1.4 NA 60× oil-immersion lens, using minimum pinhole (30 μm). Images were captured and processed using EZ-C1 3.50 imaging software (Nikon, Inc). Scale bars, 10 μm.

Chain of B-RAF/C-RAF heterodimerization (P15056 whole entry, one chain of several): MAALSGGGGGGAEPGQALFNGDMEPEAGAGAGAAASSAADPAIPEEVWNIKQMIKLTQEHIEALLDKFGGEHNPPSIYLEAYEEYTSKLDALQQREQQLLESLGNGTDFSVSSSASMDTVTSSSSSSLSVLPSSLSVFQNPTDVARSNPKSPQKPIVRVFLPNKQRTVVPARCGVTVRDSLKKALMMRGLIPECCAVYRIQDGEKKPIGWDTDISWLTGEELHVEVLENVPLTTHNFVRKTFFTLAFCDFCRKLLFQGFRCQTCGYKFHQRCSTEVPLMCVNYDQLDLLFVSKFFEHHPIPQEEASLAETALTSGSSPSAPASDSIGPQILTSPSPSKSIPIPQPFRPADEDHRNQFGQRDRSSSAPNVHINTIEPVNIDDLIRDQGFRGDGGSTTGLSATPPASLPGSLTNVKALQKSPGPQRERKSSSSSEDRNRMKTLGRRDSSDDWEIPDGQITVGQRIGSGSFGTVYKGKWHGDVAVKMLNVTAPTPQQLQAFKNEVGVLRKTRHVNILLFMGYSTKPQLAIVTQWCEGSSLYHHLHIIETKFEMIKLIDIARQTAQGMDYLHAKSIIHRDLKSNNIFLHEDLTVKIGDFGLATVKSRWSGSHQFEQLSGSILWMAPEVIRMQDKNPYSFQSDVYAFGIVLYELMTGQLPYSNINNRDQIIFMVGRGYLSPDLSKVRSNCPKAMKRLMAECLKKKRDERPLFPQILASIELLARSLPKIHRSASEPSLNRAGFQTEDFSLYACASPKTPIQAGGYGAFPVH

For `N#CC(=C(/N)Sc1ccccc1N)/C(C#N)=C(\N)Sc1ccccc1N` [Compound U0126], the B-RAF/C-RAF heterodimer formation [1] was “greatly increased”, the EC50 (HCT116) was greater than 20 µM and the EC50 (MCF7) was greater than 20 µM. For the same compound, the EC50 (HT29) was 4.41 µM and the EC50 (R40P) was 10.9 µM.
In the case of `O=C1Nc2ccc(I)cc2/C1=C/c1cc(Br)c(O)c(Br)c1` [GW 5074, reference compound], the intersegmental vessel formation [2] is reported as “do not have an effect on intersegmental vessel formation” and the “endothelial tube formation and % pericyte-covered tube length” value [3] is reported as “did not affect pericyte coverage or tube length”.
With `Oc1cc(-c2nc(-c3ccccc3)[nH]c2-c2ccncc2)ccc1Cl` [L-779,450] the “cell proliferation (BrdU incorporation) versus DMSO control” value (A549 cells) was “induce hyperproliferation”.
For `O=C(NOC[C@H](O)CO)c1ccc(F)c(F)c1Nc1ccc(I)cc1F` [PD0325901, reference compound], the “cell cycle / mitotic progression” value (XPA-1 cells) was “had no effect on mitotic progression”.
With `CCCS(=O)(=O)Nc1ccc(F)c(C(=O)c2c[nH]c3ncc(Cl)cc23)c1F` [PLX 4720] the “cell proliferation (BrdU incorporation) versus DMSO control” value (A549 cells) was “induce hyperproliferation”.
For `Cc1cc(C)c(C=C2C(=O)Nc3ccccc32)[nH]1` [SU5416, 3-[(2,4-dimethylpyrrol-5-yl)methylene]-2-indolinone], the “blood vessel formation in zebrafish embryos” value ([2]; treated 20-48 hpf, 1 μM 6 or SU5416, up to 10 μM 3) was “completely disrupting endothelial cell migration and neovascularization in the tail”.
For `Cc1ccc(NC(=O)c2ccc(CN3CCN(C)CC3)cc2)cc1Nc1nccc(-c2cccnc2)n1` [imatinib, reference compound], the intersegmental vessel formation [2] was “do not have an effect on intersegmental vessel formation” and the “endothelial tube formation and % pericyte-covered tube length” value [3] was “did not affect endothelial tube formation”.
